Assay results: patent US20170119683A1, “BIOPOLYMER-ENCAPSULATED GLYCOSYL TRANSFERASE INHIBITOR COMPOSITIONS AND METHODS FOR TREATING DIABETES AND CARDIAC INDICATIONS” (The Johns Hopkins University, priority 2014, published 2017)
Entries after “also recorded” stand apart in the source; their conditions may differ.

Experiments:
[1] = in vivo; cited from earlier work
[2] = in vivo
[3] = native, not encapsulated
[4] = test system: apoE -/- mice fed a high fat and high cholesterol (HFHC) diet; experiment: aortic histopathology and ultrasound imaging, atherosclerosis in apoE -/- mice fed HFHC diet; type: in vivo; details: FIG. 2B
[5] = test system: cultured human arterial cell monolayer; experiment: in vitro model of wounding in cultured arterial cell monolayer; type: cell-based
adipocytes = experiment: TNF induced insulin resistance in adipocytes; type: cell-based; details: chronic exposure to low levels of TNF
Source text: Additionally, adipocytes were made insulin resistant by chronic exposure to low levels of tumor necrosis factor (TNF). […] This latter patient population is estimated at 10 million in the US alone.

Apolipoprotein E-/- mice = experiment: Example 6: ox-LDL, GalT-V and amyloid-β (ELISA, Western) in ApoE-/- mice fed HFHC diet; type: in vivo
Description: Testing of the impact of D-PDMP in a mouse AD model and quantification of biomarkers in such studies was performed in the following manner. […] These mice were fed either a normal diet (control) or a high-fat high-cholesterol (HFHC) diet. While a subset of the mice fed the high-fat diet was retained as a placebo group, others were treated with 5 mg/kg (mpk) or 10 mpk of the D-PDMP drug. After euthanizing these animals, tissue and blood samples were stored for further biochemical analysis. For the quantification of the biomarkers, […] (ELISA) was used. For the measurement of ox-LDL, mouse serum was coated onto the bottom of a well. […] A secondary antibody was administered to that attached specifically to the primary antibody. This secondary antibody presented an attached reporter, allowing amounts of ox-LDL could be quantified. A substrate was bound to the reporter and fluoresced. […] ELISA was also employed for quantifying levels of GalT-V and amyloid-β, using different target-specific antibodies.

[6] = 5 mpk and 10 mpk by injection, not biopolymer-encapsulated

## CCCCCCCCCC(=O)N[C@H](CN1CCOCC1)[C@H](O)c1ccccc1.Cl [D-PDMP, D-threo-1-phenyl-2-decanoylamino-3-morpholino-1-propanol]
[1]
  half-life: approximately 52 minutes
[2]
  toxicity: no toxicity
[3]
  residence time in the body of the mice: about an hour
[4]
  returning aortic intima-media thickness of the ascending aorta to control levels: equally efficacious
[5]
  wound healing: facilitated healing
adipocytes
  TNF induced impairment in insulin signaling: reversed
Apolipoprotein E-/- mice; [6]
  levels of GalT-V: dose-dependently decreased; also recorded: decreased levels
  levels of ox-LDL: dose-dependently decreased; also recorded: decreased levels
Apolipoprotein E-/- mice; 5 mpk and 10 mpk by injection, not biopolymer-encapsulated, brain tissue
  amyloid-β levels: dose-dependently decreased; also recorded: reduction
Apolipoprotein E-/- mice; ApoE -/- model mice
  levels of atherosclerosis and Alzheimer's disease biomarkers: markedly reduced
